In brackets after ≈: the same amount, converted by molar mass. Activity calls are given as the source filed them. The calls are words filed in the database; no cut-off is given here.
Key:
Streptococcus pneumoniae [1] = assay: Antibacterial activity against Streptococcus pneumoniae TIGR4 assessed as inhibition of bacterial growth at 10 uM incubated for 24 hrs by agar plate assay; format: functional
Bacillus subtilis [2] = assay: Antibacterial activity against Bacillus subtilis 168 assessed as inhibition of bacterial growth at 10 uM incubated for 6 hrs by agar plate assay; format: functional, organism-based
Acinetobacter baumannii = assay: Antibacterial activity against Acinetobacter baumannii ATCC 19606 assessed as inhibition of bacterial growth incubated for 18 hrs by microbroth dilution method; format: functional
[3] = molecular target: T1, Cell division protein FtsZ (Streptococcus pneumoniae serotype 2 (strain D39 / NCTC 7466)) (UniProt A0A0H2ZNE0); assay: Inhibition of FtsZ in Streptococcus pneumoniae assessed as propotion of cells with intact Z-ring at 40 uM incubated for 30 mins by DAPI staining based immunostaining analysis (reference value: 92%); parameters: scale not given: the % may be the effect or the level left
T1 sequence (whole entry): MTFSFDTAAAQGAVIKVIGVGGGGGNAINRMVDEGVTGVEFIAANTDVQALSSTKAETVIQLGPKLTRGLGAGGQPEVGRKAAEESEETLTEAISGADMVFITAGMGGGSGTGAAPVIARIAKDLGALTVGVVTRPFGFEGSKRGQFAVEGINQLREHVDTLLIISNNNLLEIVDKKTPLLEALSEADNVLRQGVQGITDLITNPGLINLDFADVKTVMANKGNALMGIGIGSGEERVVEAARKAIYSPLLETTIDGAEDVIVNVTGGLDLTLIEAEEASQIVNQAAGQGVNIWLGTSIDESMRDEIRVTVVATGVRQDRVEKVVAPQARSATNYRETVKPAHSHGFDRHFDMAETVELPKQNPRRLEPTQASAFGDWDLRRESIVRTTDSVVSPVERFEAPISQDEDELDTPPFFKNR

Streptococcus pneumoniae [4] = assay: Antibacterial activity against Streptococcus pneumoniae TIGR4 assessed as inhibition of bacterial proliferation incubated for 24 hrs by CLSI based analysis; format: functional, organism-based
[5] = molecular target: T1, Cell division protein FtsZ (Streptococcus pneumoniae serotype 2 (strain D39 / NCTC 7466)); assay: Inhibition of Streptococcus pneumoniae FtsZ assessed as inhibition of extent of polymerization at 30 uM pretreated for 20 mins followed by GTP addition and measured for 20 mins by light scattering based analysis; conditions: time 40.0 min
Staphylococcus aureus [6] = assay: Antibacterial activity against Staphylococcus aureus assessed as inhibition of bacterial growth at 10 to 20 uM incubated for 4 hrs; format: functional, organism-based; conditions: dose 10-20 µM
Escherichia coli = assay: Antibacterial activity against Escherichia coli K12 assessed as inhibition of bacterial growth at 10 to 20 uM incubated for 4 hrs; format: functional, organism-based; conditions: dose 10-20 µM
[7] = molecular target: T1, Cell division protein FtsZ (Streptococcus pneumoniae serotype 2 (strain D39 / NCTC 7466)); assay: Inhibition of FtsZ in Streptococcus pneumoniae assessed as improper distribution of FtsZ throughout the cells at 40 uM incubated for 30 mins by DAPI staining based immunostaining analysis
[8] = molecular target: T1, Cell division protein FtsZ (Streptococcus pneumoniae serotype 2 (strain D39 / NCTC 7466)); assay: Inhibition of Streptococcus pneumoniae FtsZ polymerization assessed as length of polymers at 40 uM preincubated for 20 mins followed by GTP addition for 200 secs and later incubated on copper-TEM grid for 5 mins by transmission electron microscopy (reference value: 61 +/-26 nm); conditions: time 1700.0 sec
[9] = molecular target: T1, Cell division protein FtsZ (Streptococcus pneumoniae serotype 2 (strain D39 / NCTC 7466)); assay: Inhibition of Streptococcus pneumoniae FtsZ polymerization assessed as very short and thin polymers at 40 uM preincubated for 20 mins followed by GTP addition for 200 secs and later incubated on copper-TEM grid for 5 mins by transmission electron microscopy; conditions: time 1700.0 sec
[10] = molecular target: T1, Cell division protein FtsZ (Streptococcus pneumoniae serotype 2 (strain D39 / NCTC 7466)); assay: Inhibition of Streptococcus pneumoniae FtsZ polymerization at 5 to 40 uM pretreated for 20 mins followed by GTP addition and measured for 20 mins by tryptophan fluorescence based spectrofluorometric analysis; conditions: dose 5-40 µM, time 40.0 min
[11] = molecular target: T1, Cell division protein FtsZ (Streptococcus pneumoniae serotype 2 (strain D39 / NCTC 7466)); assay: Inhibition of Streptococcus pneumoniae FtsZ assessed as inhibition of extent of polymerization at 40 uM pretreated for 20 mins followed by GTP addition and measured for 20 mins by light scattering based analysis; conditions: time 40.0 min
Bacillus subtilis [12] = assay: Antibacterial activity against Bacillus subtilis 168 assessed as inhibition of bacterial growth at 10 to 20 uM incubated for 4 hrs; format: functional, organism-based; conditions: dose 10-20 µM
Streptococcus pyogenes = assay: Antibacterial activity against Streptococcus pyogenes assessed as inhibition of bacterial growth at 10 to 20 uM incubated for 20 hrs; format: functional, organism-based; conditions: dose 10-20 µM
Streptococcus pneumoniae [13] = assay: Induction of membrane disruption in Streptococcus pneumoniae TIGR4 at 40 uM incubated for 30 mins by FM4-64 live cell staining based confocal microscopy; format: functional, organism-based
[14] = molecular target: T1, Cell division protein FtsZ (Streptococcus pneumoniae serotype 2 (strain D39 / NCTC 7466)); assay: Inhibition of Streptococcus pneumoniae FtsZ assessed as inhibition of rate of polymerization at 40 uM pretreated for 20 mins followed by GTP addition and measured for 20 mins by tryptophan fluorescence based spectrofluorometric analysis; conditions: time 40.0 min
Streptococcus pneumoniae [15] = assay: Bactericidal activity against Streptococcus pneumoniae TIGR4 assessed as induction of cell death by measuring proportion of PI-stained bacteria at 20 ug/ml incubated for 12 hrs by propidium iodide staining based confocal microscopy (reference value: 2%); format: functional; conditions: dose 20 µg/ml
[16] = molecular target: T1, Cell division protein FtsZ (Streptococcus pneumoniae serotype 2 (strain D39 / NCTC 7466)); assay: Inhibition of Streptococcus pneumoniae FtsZ polymerization at 20 uM preincubated for 20 mins followed by GTP addition for 3 mins by atomic force microscopy; conditions: time 23.0 min
[17] = molecular target: T1, Cell division protein FtsZ (Streptococcus pneumoniae serotype 2 (strain D39 / NCTC 7466)); assay: Inhibition of Streptococcus pneumoniae FtsZ assessed as time required to start of polymerization at 40 uM pretreated for 20 mins followed by GTP addition and measured for 20 mins by tryptophan fluorescence based spectrofluorometric analysis (reference value: 37 +/-18 sec); conditions: time 40.0 min
[18] = molecular target: T1, Cell division protein FtsZ (Streptococcus pneumoniae serotype 2 (strain D39 / NCTC 7466)); assay: Inhibition of Streptococcus pneumoniae FtsZ assessed as increase in GTPase activity by measuring increase in inorganic phosphate release upto 20 uM pretreated for 20 mins followed by GTP addition and measured after 10 mins by malachite green assay based UV-Vis spectrophometry; conditions: time 30.0 min
[19] = molecular target: T1, Cell division protein FtsZ (Streptococcus pneumoniae serotype 2 (strain D39 / NCTC 7466)); assay: Inhibition of Streptococcus pneumoniae FtsZ assessed as rate of polymerization at 40 uM pretreated for 20 mins followed by GTP addition and measured for 20 mins by tryptophan fluorescence based spectrofluorometric analysis (reference value: 0.19 +/-0.02 au/s); conditions: time 40.0 min
Streptococcus pneumoniae [20] = assay: Induction of DNA nucleoid segregation in Streptococcus pneumoniae at 40 uM incubated for 30 mins by DAPI staining based immunostaining analysis; format: functional, organism-based
Vibrio cholerae = assay: Antibacterial activity against Vibrio cholerae assessed as inhibition of bacterial growth at 10 to 20 uM incubated for 4 hrs; format: functional, organism-based; conditions: dose 10-20 µM
Streptococcus pneumoniae [21] = assay: Bactericidal activity against Streptococcus pneumoniae TIGR4 assessed as induction of cell death by measuring proportion of PI-stained bacteria at 40 ug/ml incubated for 12 hrs by propidium iodide staining based confocal microscopy (reference value: 2%); format: functional; conditions: dose 40 µg/ml
[22] = Antiproliferative activity against human HeLa cells assessed as inhibition of cell growth incubated for 24 hrs by SRB assay; format: toxicity, cell-based
Klebsiella pneumoniae = assay: Antibacterial activity against Klebsiella pneumoniae assessed as inhibition of bacterial growth at 10 to 20 uM incubated for 4 hrs; format: functional, organism-based; conditions: dose 10-20 µM
Staphylococcus aureus [23] = assay: Antibacterial activity against Staphylococcus aureus assessed as inhibition of bacterial growth incubated for 16 to 24 hrs by CLSI based microdilution assay; format: functional; conditions: time 16-24 hrs
[24] = tested on: Mycobacterium tuberculosis; assay: Antibacterial activity against Mycobacterium tuberculosis H37; format: functional
Bacillus subtilis [25] = assay: Antibacterial activity against Bacillus subtilis; format: functional
Streptococcus pneumoniae [26] = assay: Antibacterial activity against Streptococcus pneumoniae TIGR4 assessed as inhibition of bacterial growth incubated for 24 hrs by agar dilution method; format: functional
Bacillus subtilis [27] = assay: Antibacterial activity against Bacillus subtilis 168 assessed as inhibition of bacterial growth incubated for 6 hrs by agar dilution method; format: functional
Staphylococcus aureus [28] = assay: Antibacterial activity against Staphylococcus aureus; format: functional
[29] = molecular target: T1, Cell division protein FtsZ (Streptococcus pneumoniae serotype 2 (strain D39 / NCTC 7466)); assay: Inhibition of Streptococcus pneumoniae FtsZ assessed as increase in GTPase activity by measuring increase in inorganic phosphate release at >20 uM pretreated for 20 mins followed by GTP addition and measured after 10 mins by malachite green assay based UV-Vis spectrophometry; conditions: time 30.0 min

For `CCOC(=O)c1c(CSc2ccc(Br)cc2)nc2ccc(Br)cn12`, the inhibition at 10 µM (Streptococcus pneumoniae [1]) was 0% and the Activity (Bacillus subtilis [2]) was “inactive”.
For `CCOC(=O)c1c(CSc2ccc([N+](=O)[O-])cc2)nc2ccc(Br)cn12`, the inhibition at 10 µM (Streptococcus pneumoniae [1]) was 0% and the Activity (Bacillus subtilis [2]) was “inactive”.
In the case of `CCOC(=O)c1c(CSc2nc3ccccc3[nH]2)nc2ccc(Br)cn12`, the inhibition at 10 µM (Streptococcus pneumoniae [1]) is reported as 37% and the Activity (Bacillus subtilis [2]) is reported as “inactive”.
`Cc1nc2ccccc2n1C(=O)/C=C/c1ccc(Br)cc1` showed an MIC (Acinetobacter baumannii) of 32 µg/mL (≈ 93.8 µM).
`CC1=CC(=O)c2ccccc2C1=O` [MENADIONE] showed an inhibition at 10 µM (Streptococcus pneumoniae [1]) of 100%.
`CCOC(=O)c1c(CSc2ccc(OC)cc2)nc2ccc(Br)cn12` gave an Activity [3] of 46%, an IC50 (Streptococcus pneumoniae [4]; TIGR4, 24 h) of 17 µM and an MIC (Streptococcus pneumoniae [4]; TIGR4, time 24 hrs) of 20 µg/mL (≈ 47.5 µM). For the same compound, the inhibition [5] was 34%, the Activity (Staphylococcus aureus [6]) was “inactive” and the Activity (Escherichia coli) was “inactive”. For the same compound, the inhibition [7] was 54%, the Activity [8] was 13 nm and the inhibition [9] was “Active”. For the same compound, the inhibition [10] was “Active”, the inhibition [11] was 59% and the Activity (Bacillus subtilis [12]) was “inactive”. For the same compound, the Activity (Streptococcus pyogenes) was “Active”, the Activity (Streptococcus pneumoniae [13]) was “inactive” and the inhibition [14] was 75%. The inhibition at 10 µM (Streptococcus pneumoniae [1]) was 67%, the Activity (Streptococcus pneumoniae [15]) was 17% and the inhibition [16] was “Active”. For the same compound, the TIME [17] was 0.0644 h, the inhibition [18] was “Active” and the INH [19] was 0.05 AU/sec. The Activity (Streptococcus pneumoniae [20]) was “inactive”, the Activity (Vibrio cholerae) was “inactive” and the Activity (Streptococcus pneumoniae [21]) was 28%. For the same compound, the Activity (Bacillus subtilis [2]) was “inactive”, the IC50 at 24 h [22] was 41 µM and the Activity (Klebsiella pneumoniae) was “inactive”.
Compound `NC(=O)c1c(F)ccc(OCc2nc3cc(C(F)(F)F)cnc3s2)c1F` has an MIC (Staphylococcus aureus [23]) of 2 µg/mL (≈ 5.14 µM).
In the case of `CCOC(=O)c1c(CSc2ccc(Cl)cc2)nc2ccc(Br)cn12`, the inhibition at 10 µM (Streptococcus pneumoniae [1]) is reported as 17% and the Activity (Bacillus subtilis [2]) is reported as “inactive”.
Compound `CC(NC(=O)c1nc2ccccc2n1-c1ccccc1)c1ccccc1` (stereo unspecified) has an MIC [24] of 0.78 µg/mL (≈ 2.28 µM) and an MIC (Bacillus subtilis [25]) of 1.56 µg/mL (≈ 4.57 µM).
For `O=C(CCc1ccc(O)cc1)C1=C(O)C(Cc2ccc(O)cc2)CCC1` (stereo unspecified), the MIC (Streptococcus pneumoniae [26]) was ~0.7 µg/mL (≈ 1.99 µM) and the MIC (Bacillus subtilis [27]) was ~3.8 µg/mL (≈ 10.8 µM).
For `CCOC(=O)c1c(CSc2ccccc2)nc2ccc(Br)cn12`, the inhibition at 10 µM (Streptococcus pneumoniae [1]) was 25% and the Activity (Bacillus subtilis [2]) was “inactive”.
For `NC(=O)c1c(F)ccc(OCc2nc3cc(Cl)cnc3s2)c1F`, the MIC (Staphylococcus aureus [28]) was 0.5 µg/mL (≈ 1.41 µM) and the MIC (Bacillus subtilis [25]) was 1 µg/mL (≈ 2.81 µM).
For `CCOC(=O)c1c(CSc2ccccc2Br)nc2ccc(Br)cn12`, the inhibition at 10 µM (Streptococcus pneumoniae [1]) was 0% and the Activity (Bacillus subtilis [2]) was “inactive”.
In the case of `CCOC(=O)c1c(CSc2ccccc2OC)nc2ccc(Br)cn12`, the inhibition at 10 µM (Streptococcus pneumoniae [1]) is reported as 17% and the Activity (Bacillus subtilis [2]) is reported as “inactive”.
For `CCOC(=O)c1c(CSc2ccc3ccccc3c2)nc2ccc(Br)cn12`, the inhibition [29] was “inactive”, the inhibition [10] was “Active” and the inhibition at 10 µM (Streptococcus pneumoniae [1]) was 54%. For the same compound, the Activity (Bacillus subtilis [2]) was “inactive”.
For `CCOC(=O)c1c(CSc2ccncc2)nc2ccc(Br)cn12`, the inhibition at 10 µM (Streptococcus pneumoniae [1]) was 31% and the Activity (Bacillus subtilis [2]) was “inactive”.
